Broadly, the mortality is the percentage killed. Broadly, the inhibition is how much of the control response was suppressed.

In brackets after ≈: the same amount, converted by molar mass.

This note sets out measurements from ChEMBL document CHEMBL3044936, “Antifeedant properties of natural products from Parthenium argentatum, P. argentatumP. tomentosum (Asteraceae) and Castela emoryi (Simaroubeaceae) against Reticulitermes flavipes” (1999).

Holding throughout (format): functional
For assay [1], the system named is Reticulitermes flavipes. The assay is described as follows: Antitermitic activity against Reticulitermes flavipes assessed as mortality at 5.5 ug/disk after 10 days by no-choice paper disk assay. Conditions: 240 h.
Assay [2] deals with Reticulitermes flavipes. The assay is described as follows: Antifeedant activity against Reticulitermes flavipes assessed as feeding inhibition at 2.7 ug/disk after 3 days by choice paper disk assay. Conditions: 72 h.
In assay [3] the test system is Reticulitermes flavipes. Description: Ratio of mortality to compound consumption in Reticulitermes flavipes at 5.5 ug/disk after 10 days.
In assay [4] the test system is Reticulitermes flavipes. Description: Antifeedant activity against Reticulitermes flavipes assessed as compound consumption at 5.5 ug/disk after 10 days by no-choice paper disk assay.
Assay [5] has as its system Reticulitermes flavipes. Description: Antifeedant activity against Reticulitermes flavipes assessed as feeding inhibition after 3 days by choice paper disk assay. Conditions: 72 h, read-out: ED50 (the source's name).

For the molecule `COC1=C[C@]2(C)CCC(C(C)C)=CC2=C(C)C1=O` [ARGENTONE], in the assay on Reticulitermes flavipes [1], the mortality at 5.5 µg/disc amounted to 66%. For the same molecule, the inhibition at 2.7 µg/disc in the assay on Reticulitermes flavipes [2] is 70.5%. Moreover, in the assay on Reticulitermes flavipes [3], the Ratio is 2. In the assay on Reticulitermes flavipes [4], the Activity came out at 33%. In addition, the EC50 in the assay on Reticulitermes flavipes [5] came to 85.7 µg/mL (≈ 348 µM).

Regarding `COc1ccc(C(=O)O[C@H]2C/C(C)=C/CC/C(C)=C/[C@H]3[C@@H]2C3(C)C)cc1` [GUAYULIN B], the mortality at 5.5 µg/disc with Reticulitermes flavipes [1] was 0%. For the same molecule, the inhibition at 2.7 µg/disc with Reticulitermes flavipes [2] came to 31.9%. Besides, the Ratio with Reticulitermes flavipes [3] amounted to 0. The Activity in the assay with Reticulitermes flavipes [4] was 72%. Further, in the assay on Reticulitermes flavipes [5], the EC50 is more than 1000 µg/mL.

As to `CC(=O)O[C@H]1C(=O)O[C@@H]2C[C@H]3C(C)=CC(=O)[C@@H](O)[C@]3(C)[C@H]3[C@]4(O)OC[C@]32[C@@H]1[C@@H](C)[C@H]4O` [HOLACANTHONE], the mortality at 5.5 µg/disc in the assay on Reticulitermes flavipes [1] came out at 24%. For the same molecule, the inhibition at 2.7 µg/disc in the assay on Reticulitermes flavipes [2] was 39.4%. Further, in the assay on Reticulitermes flavipes [3], the Ratio came out at 0.7. Also, the Activity in the assay on Reticulitermes flavipes [4] was determined as 34%. For the same molecule, in the assay on Reticulitermes flavipes [5], the EC50 was more than 1000 µg/mL.

Take `CC(C)(O)[C@@H]1CC[C@](C)([C@H]2[C@@H](O)C[C@@]3(C)C4=C(CC[C@]23C)[C@@]2(C)CCC(=O)C(C)(C)[C@@H]2CC4)O1` [INCANILIN]: in the assay with Reticulitermes flavipes [1], the mortality at 5.5 µg/disc was determined as 0%. Moreover, in the assay on Reticulitermes flavipes [2], the inhibition at 2.7 µg/disc stood at 30.8%. Besides, the Ratio with Reticulitermes flavipes [3] is given as 0. Besides, in the assay with Reticulitermes flavipes [4], the Activity was determined as 16%. For the same molecule, in the assay with Reticulitermes flavipes [5], the EC50 was more than 1000 µg/mL.

`C/C1=C\[C@H]2[C@@H]([C@@H](O)C/C(C)=C/CC1)C2(C)C` [PARTHENIOL]: in the assay with Reticulitermes flavipes [1], the mortality at 5.5 µg/disc stood at 71%. The inhibition at 2.7 µg/disc with Reticulitermes flavipes [2] was 46%. The Ratio in the assay on Reticulitermes flavipes [3] came to 1.1. Also, the Activity in the assay on Reticulitermes flavipes [4] worked out at 65%. Also, in the assay on Reticulitermes flavipes [5], the EC50 was determined as 490 µg/mL (≈ 2230 µM).
